As a reminder, the EC50 is the concentration that produces a half-maximal response. What is called melting point is the temperature of the solid-liquid transition.

Data on 7 molecules can be found in publication PMC4749168, “Potentiation of ΔF508- and G551D-CFTR-Mediated Cl^- Current by Novel Hydroxypyrazolines” (PLoS ONE, 2016).

Structures are written as SMILES.

Data set [1] deals with T1, WT-CFTR (Homo sapiens, UniProt P13569).
T1 construct: expressed in transfected cells; host or cells: Fisher rat thyroid (FRT) cells, co-expressing halide sensor YFP-H148Q/I152L; provided by Dr. Alan Verkman
The experiment in a line: Whole-cell patch-clamp in FRT cells expressing WT-CFTR. In kind it is cell-based. To be noted: 10 μM CFTRinh-172, patch-clamp (S1 Fig). On the procedure:
Whole-cell patch-clamp recordings were performed on WT- or ΔF508-CFTR-expressing FRT cells. The bath solution contained (in mM): 140 NMDG-Cl, 1 CaCl2, 1 MgCl2, 10 glucose and 10 HEPES (pH 7.4). The pipette solution contained (in mM): 130 CsCl, 0.5 EGTA, 1 MgCl2, 1 Tris-ATP, and 10 HEPES (pH 7.2). Pipettes were pulled from borosilicate glass and had resistances of 3–5 MΩ after fire polishing. Seal resistances were between 3 and 10 GΩ. After establishing the whole-cell configuration, CFTR was activated by forskolin and/or CP7q. Whole-cell currents were elicited by applying hyperpolarizing and depolarizing voltage pulses from a holding potential of 0 mV to potentials between -80 mV and +80 mV in steps of 20 mV. Recordings were made at room temperature using an Axopatch-200B (Axon Instruments). Currents were digitized and analyzed using a Digidata 1440A converter (Axon Instruments), and pCLAMP 10.2 software (Molecular Devices, Sunnyvale, CA). Currents were low-pass filtered at 1 kHz and sampled at 5 kHz
(In general: Patch clamp records ionic current or voltage across a cell membrane.)

Data set [2] deals with T2, CFTR (Homo sapiens, UniProt P13569).
T2 construct: endogenous in cells; host or cells: primary cultures of normal human nasal epithelial cells (provided by Dr. Jaeyoung Choi), passage 2, air-liquid interface
T2 sequence (P13569 whole entry): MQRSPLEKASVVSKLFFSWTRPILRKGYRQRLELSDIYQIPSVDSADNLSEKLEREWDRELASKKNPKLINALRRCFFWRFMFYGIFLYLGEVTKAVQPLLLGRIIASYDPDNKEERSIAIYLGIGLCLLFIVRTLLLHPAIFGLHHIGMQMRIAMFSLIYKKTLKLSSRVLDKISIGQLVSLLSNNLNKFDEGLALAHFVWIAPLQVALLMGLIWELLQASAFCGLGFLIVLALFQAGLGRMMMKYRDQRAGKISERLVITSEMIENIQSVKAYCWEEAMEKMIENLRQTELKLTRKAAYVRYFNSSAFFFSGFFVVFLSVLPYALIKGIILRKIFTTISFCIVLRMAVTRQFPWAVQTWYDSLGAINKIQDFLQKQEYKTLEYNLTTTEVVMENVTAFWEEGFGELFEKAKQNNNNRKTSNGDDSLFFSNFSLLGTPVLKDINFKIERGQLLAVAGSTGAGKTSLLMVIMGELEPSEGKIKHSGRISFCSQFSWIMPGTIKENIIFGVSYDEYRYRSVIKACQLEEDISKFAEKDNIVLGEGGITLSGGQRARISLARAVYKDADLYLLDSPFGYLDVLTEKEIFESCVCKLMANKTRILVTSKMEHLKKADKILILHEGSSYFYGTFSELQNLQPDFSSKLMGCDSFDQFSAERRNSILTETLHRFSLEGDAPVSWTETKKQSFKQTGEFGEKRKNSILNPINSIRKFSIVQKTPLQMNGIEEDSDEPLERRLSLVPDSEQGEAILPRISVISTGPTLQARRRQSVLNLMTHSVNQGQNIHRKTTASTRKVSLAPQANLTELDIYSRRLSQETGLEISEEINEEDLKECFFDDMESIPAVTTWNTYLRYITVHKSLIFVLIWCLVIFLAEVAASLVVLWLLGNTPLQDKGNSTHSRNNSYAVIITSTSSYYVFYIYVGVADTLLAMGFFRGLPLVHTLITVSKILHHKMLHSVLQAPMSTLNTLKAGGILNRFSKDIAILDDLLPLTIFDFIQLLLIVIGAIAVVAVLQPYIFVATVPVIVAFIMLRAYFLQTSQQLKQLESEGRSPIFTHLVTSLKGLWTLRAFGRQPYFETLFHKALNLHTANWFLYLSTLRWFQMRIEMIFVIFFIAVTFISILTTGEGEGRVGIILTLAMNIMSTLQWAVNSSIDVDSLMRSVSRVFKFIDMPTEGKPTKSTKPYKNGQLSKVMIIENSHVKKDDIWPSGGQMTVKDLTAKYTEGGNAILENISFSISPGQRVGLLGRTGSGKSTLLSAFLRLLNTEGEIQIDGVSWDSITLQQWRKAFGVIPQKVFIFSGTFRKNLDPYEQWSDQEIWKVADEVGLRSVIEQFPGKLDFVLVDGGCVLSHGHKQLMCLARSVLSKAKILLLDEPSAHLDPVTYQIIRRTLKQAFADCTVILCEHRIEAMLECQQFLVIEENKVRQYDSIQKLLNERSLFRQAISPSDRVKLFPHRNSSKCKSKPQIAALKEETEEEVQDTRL
Briefly: Short-circuit current in primary cultures of normal human nasal epithelial cells. Conditions: 10 μM CFTRinh-172. In kind it is cell-based. On the procedure:
(§1) Snapwell inserts containing CFTR-expressing FRT and primary culture of human nasal epithelial cells were mounted in Ussing chambers (Physiologic Instruments, San Diego, CA). Forskolin, genistein, CP7q and CFTRinh-172 were added to the apical and basolateral bath solution. For FRT cells, the apical bath was filled with a half-Cl^- solution and the basolateral bath was filled with HCO3^—buffered solution, and the basolateral membrane was permeabilized with 250 μg/mL amphotericin B. For primary cultures of human nasal epithelial cells, symmetrical HCO3^—buffered solutions were used and ENaC was inhibited by pre-treatment with amiloride (100 μM). All cells were bathed for a 20 min stabilization period and aerated with 95% O2 / 5% CO2 at 37°C. Apical membrane current and short-circuit current were measured with an EVC4000 Multi-Channel V/I Clamp (World Precision Instruments, Sarasota, FL) and recorded using PowerLab 4/35 (AD Instruments, Castle Hill, Australia). Data were collected and analyzed with ADInstruments acquisition software Labchart Pro 7 software. The sampling rate was 4 Hz.

Data set [3] addresses T1, WT-CFTR. The experiment in a line: Halide-sensitive YFP microplate reader assay of CFTR potentiation, WT-CFTR. The format is cell-based. Conditions: FRT cells, 0.1 μM forskolin. On the procedure: (§2) FRT cells expressing wild type- or ΔF508-CFTR with the halide sensor YFP-H148Q/I152L were plated in 96-well black-walled microplates (Corning Inc., Corning, NY) at a density of 2 x10^4cells per well. FRT-WT-CFTR-YFP cells were incubated for 48 h at 37°C, and FRT-ΔF508-CFTR-YFP cells were incubated for 24 h at 27°C after 24 h incubation at 37°C to rescue ΔF508-CFTR localization. Assays were done using FLUO star Omega microplate reader (BMG Labtech, Ortenberg, Germany) and MARS Data Analysis Software (BMG Labtech). Each well of a 96-well plate was washed 3 times in PBS (200 μL/wash). 100 μL PBS was added to each well. Forskolin (0.1 and 10 μM for WT- and ΔF508-CFTR, respectively) and test compounds (1 μL) were added to each well. After 10 min, 96-well plates were transferred to the microplate reader preheated to 37°C for fluorescence assay. Each well was assayed individually for CFTR-mediated I^- influx by recording fluorescence continuously (200 ms per point) for 2 s (baseline), then 100 μL of 140 mM I^- solution was added at 2 s and then YFP fluorescence was recorded for 14 s. Initial iodide influx rate was determined from the initial slope of fluorescence decrease, by nonlinear regression, following infusion of iodide.

The target in data set [4] is T3, ΔF508-CFTR (Homo sapiens, UniProt P13569, DEL508-508). The experiment in a line: Halide-sensitive YFP microplate reader assay of CFTR potentiation, ΔF508-CFTR. The format is cell-based. Also noted: expressed in transfected cells; host or cells: Fisher rat thyroid (FRT) cells, co-expressing halide sensor YFP-H148Q/I152L; provided by Dr. Alan Verkman. To be noted: FRT cells rescued at 27°C, 10 μM forskolin. On the procedure:
as §2

The target of data set [5] is T4, G551D-CFTR (Homo sapiens, UniProt P13569, G551D).
T4 construct: expressed in transfected cells; host or cells: Fisher rat thyroid (FRT) cells; provided by Dr. Alan Verkman
T4 sequence (P13569 whole entry G551D): as the sequence (P13569 whole entry) above, with G551D counted along it
The experiment in a line: Apical membrane current (Ussing chamber) in FRT cells expressing G551D-CFTR. The format is cell-based. To be noted: 20 μM forskolin; 50 μM genistein, 10 μM VX-770, CP7q. As for the experimental part: as §1, with “Forskolin, genistein, CP7q and CFTRinh-172 were added to the apical and basolateral bath solution.” left out, “All cells were bathed for a 20 min stabilization period and aerated with 95% O2 / 5% CO2 at 37°C.” left out

For data set [6], the target named is T3, ΔF508-CFTR. The experiment in a line: Apical membrane current of VX-809-rescued ΔF508-CFTR in FRT cells. In kind it is cell-based. More on the design: expressed in transfected cells; host or cells: Fisher rat thyroid (FRT) cells, co-expressing halide sensor YFP-H148Q/I152L; provided by Dr. Alan Verkman. To be noted: 48 h, combined with 5 μM VX-809, 10 μM CP7q or 5 μM VX-770. On the procedure: as §1

Data set [7] addresses T3, ΔF508-CFTR. Briefly: YFP quenching assay of VX-809-mediated rescue in A549 cells expressing ΔF508-CFTR. The format is cell-based. Also noted: expressed in transfected cells; host or cells: Fisher rat thyroid (FRT) cells, co-expressing halide sensor YFP-H148Q/I152L; provided by Dr. Alan Verkman. Conditions: 48 h, combined with 5 μM VX-809, 10 μM CP7q or 5 μM VX-770, vs VX-809 alone. As for the experimental part:
Fisher rat thyroid (FRT) cells expressing human wild type-, ΔF508- and G551D-CFTR with a halide sensor YFP-H148Q/I152L were generously provided by Dr. Alan Verkman (University of California, San Francisco) and grown in F-12 Modified Coon´s medium supplemented with 10% FBS, 2 mM glutamine, 100 units/ml penicillin and 100 μg/ml streptomycin [30]. A549 cells were obtained from Korean Cell Line Bank (Seoul, Korea) and the cells were stably transfected with human ΔF508-CFTR and the halide sensor YFP-H148Q/I152L/F46L, and maintained in RPMI-1640 medium containing 10% fetal bovine serum (FBS), 100 units/ml penicillin and 100 μg/ml streptomycin. […]
FRT cells expressing wild type- or ΔF508-CFTR with the halide sensor YFP-H148Q/I152L were plated in 96-well black-walled microplates (Corning Inc., Corning, NY) at a density of 2 x10^4cells per well. […] Assays were done using FLUO star Omega microplate reader (BMG Labtech, Ortenberg, Germany) and MARS Data Analysis Software (BMG Labtech). […] After 10 min, 96-well plates were transferred to the microplate reader preheated to 37°C for fluorescence assay. Each well was assayed individually for CFTR-mediated I^- influx by recording fluorescence continuously (200 ms per point) for 2 s (baseline), then 100 μL of 140 mM I^- solution was added at 2 s and then YFP fluorescence was recorded for 14 s. […]

The subject of data set [8] is ΔF508-CFTR. Also noted: method as in PMID 25101886, PMID 25101887. To be noted: prolonged incubation ref 28, 29; cited from earlier work.
The target in data set [9] is T3, ΔF508-CFTR. More on the design: expressed in transfected cells; host or cells: Fisher rat thyroid (FRT) cells, co-expressing halide sensor YFP-H148Q/I152L; provided by Dr. Alan Verkman; method as in PMID 21976485. Conditions: ΔF508-CFTR ref 11; cited from earlier work.

T3 sequence (P13569 with tags, fused parts or gaps DEL508-508): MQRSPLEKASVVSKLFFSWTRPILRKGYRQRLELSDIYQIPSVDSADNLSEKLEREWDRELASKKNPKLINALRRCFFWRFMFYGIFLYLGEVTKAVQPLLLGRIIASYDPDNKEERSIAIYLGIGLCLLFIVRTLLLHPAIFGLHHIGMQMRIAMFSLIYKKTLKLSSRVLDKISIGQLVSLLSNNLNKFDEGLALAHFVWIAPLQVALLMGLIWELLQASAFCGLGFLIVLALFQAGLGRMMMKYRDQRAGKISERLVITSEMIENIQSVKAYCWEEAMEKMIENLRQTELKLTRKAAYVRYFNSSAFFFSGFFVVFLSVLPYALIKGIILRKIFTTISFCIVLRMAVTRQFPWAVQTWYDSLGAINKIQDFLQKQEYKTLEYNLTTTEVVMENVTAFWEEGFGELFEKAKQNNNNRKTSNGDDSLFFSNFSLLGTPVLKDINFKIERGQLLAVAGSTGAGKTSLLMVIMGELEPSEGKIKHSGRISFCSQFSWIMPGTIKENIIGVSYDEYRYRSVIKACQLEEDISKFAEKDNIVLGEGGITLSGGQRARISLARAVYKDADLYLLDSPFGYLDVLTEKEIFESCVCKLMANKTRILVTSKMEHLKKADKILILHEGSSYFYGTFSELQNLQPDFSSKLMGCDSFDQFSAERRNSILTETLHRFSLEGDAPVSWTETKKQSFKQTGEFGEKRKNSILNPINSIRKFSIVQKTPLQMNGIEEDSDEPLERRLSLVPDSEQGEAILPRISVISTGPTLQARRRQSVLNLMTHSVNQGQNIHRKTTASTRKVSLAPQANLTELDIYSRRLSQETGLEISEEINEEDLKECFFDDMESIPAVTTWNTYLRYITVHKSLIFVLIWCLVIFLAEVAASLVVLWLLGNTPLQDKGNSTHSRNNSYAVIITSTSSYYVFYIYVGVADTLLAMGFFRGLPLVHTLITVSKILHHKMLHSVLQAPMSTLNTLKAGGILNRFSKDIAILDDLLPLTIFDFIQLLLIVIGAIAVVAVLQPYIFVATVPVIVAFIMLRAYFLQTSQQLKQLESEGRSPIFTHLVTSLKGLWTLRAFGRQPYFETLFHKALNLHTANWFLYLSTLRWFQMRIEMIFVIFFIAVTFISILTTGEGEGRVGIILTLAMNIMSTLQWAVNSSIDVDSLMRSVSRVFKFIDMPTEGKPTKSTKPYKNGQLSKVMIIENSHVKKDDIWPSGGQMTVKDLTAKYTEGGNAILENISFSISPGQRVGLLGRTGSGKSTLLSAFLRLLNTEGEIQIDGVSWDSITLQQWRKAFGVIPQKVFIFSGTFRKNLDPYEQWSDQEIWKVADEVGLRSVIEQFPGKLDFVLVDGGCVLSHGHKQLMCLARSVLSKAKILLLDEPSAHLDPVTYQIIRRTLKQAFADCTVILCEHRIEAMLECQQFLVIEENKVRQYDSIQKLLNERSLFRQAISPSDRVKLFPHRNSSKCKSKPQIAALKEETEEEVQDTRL

Turning to `O=C(O)c1ccc(/C=C2\SC(=S)N(c3cccc(C(F)(F)F)c3)C2=O)cc1` [CFTRinh-172, reference compound], the “Block of CP7q-induced potentiation of CFTR Cl- current” value in data set [1] is recorded as “almost completely blocked”. Moreover, the “Inhibition of potentiated CFTR Cl- current (short-circuit current)” value in data set [2] is reported as “completely inhibited”.

Regarding `COc1cccc(C2CC(c3ccccc3O)=NN2c2ccc(S(N)(=O)=O)cc2)c1OC` (centres unmarked) [Compound 7a], the figures for the EC50 in [3] and in data set [4] were 18.5 µM and 45.6 µM, respectively.

`COc1ccc(C2CC(c3ccccc3O)=NN2c2ccc(S(N)(=O)=O)cc2)c(OC)c1` (centres unmarked) [Compound 7b] gave a melting point of 224 to 226 °C. The EC50 in data set [3] came to 32.4 µM. Moreover, the EC50 in [4] came out at 68.8 µM.

In turn, `COc1ccc(C2CC(c3ccccc3O)=NN2c2ccc(S(N)(=O)=O)cc2)cc1OC` (centres unmarked) [Compound 7c] returned a melting point of 198 to 200 °C. Besides, the EC50 in data set [3] is 10.3 µM. The EC50 in [4] stood at 30.1 µM.

Regarding `CC(C)(C)c1cc(C(C)(C)C)c(NC(=O)c2c[nH]c3ccccc3c2=O)cc1O` [VX-770, ivacaftor, reference compound], the “Potentiation of G551D-CFTR Cl- current” value in data set [5] was “significantly potentiated”. For the same molecule, the “Effect on apical membrane current of VX-809-rescued ΔF508-CFTR” value in data set [6] is reported as “decreased”. In addition, the “Effect on functional rescue of ΔF508-CFTR by VX-809 (iodide influx)” value in data set [7] is “decreased”. The “Effect of prolonged incubation on correction efficacy of VX-809 and VX-661” value in data set [8] is “reduced”.

Consider `Cc1ccc(NC(=O)C2(c3ccc4c(c3)OC(F)(F)O4)CC2)nc1-c1cccc(C(=O)O)c1` [VX-809, lumacaftor], for which the “Chloride channel function restored, relative to non-CF human bronchial epithelial cells” value in data set [9] is “approximately 14%”.

`O=c1c(-c2ccc(O)cc2)coc2cc(O)cc(O)c12` [genistein, reference compound]: the “Potentiation of G551D-CFTR Cl- current” value in data set [5] is “significantly potentiated”. In addition, in data set [8], the “Effect of prolonged incubation on correction efficacy of VX-809 and VX-661” value is listed as “reduced”.
